Where two headings read alike, the source gives them in different places.
Experiments:
[1] = system: rats with middle cerebral artery occlusion (MCAO); assay: Forelimb placing test, MCAO rats, double crossover study (Example 2); assay type: in vivo, Sprague Dawley rat
Description: 4-AP was evaluated for its ability to promote functional sensorimotor improvement following ischemic stroke in rats with stable motor deficits at times remote from their ischemic events. The animal model mimics the conditions in human ischemic stroke and is produced by middle cerebral artery occlusion (MCAO), which results in extensive infarction in cerebral cortex and striatum, including the cortical spinal tract (white matter).
In particular, the MCAO model in Sprague Dawley rats that was utilized in the experiments presented below mimics the conditions in human ischemic stroke. In this model, focal cerebral infarcts were made by permanent occlusion of the proximal right middle cerebral artery (MCA) using a modification of the method of Tamura et al. (No To Shinkei 1986; 38:747-51). Briefly, the temporalis muscle was bisected and reflected through an incision made midway between the eye and the ear canal. The proximal MCA was exposed through a subtemporal craniectomy without removing the zygomatic arch and without transecting the facial nerve.
Dosing and Treatment: Rats were treated in accordance with the dosing schedule shown in Tables 2A, 2B, 3 and FIG. 2, with each Phase being a two week period of time. A solution of 4-AP was used in this experiment. Dosing was started at 4 weeks after ischemic event. 4-aminopyridine was dissolved in water for injection (WFI, Cellgro) and sterile filtered. Final concentrations of 0.315 mg/mL or 1.0 mg/mL of 4-aminopyridine were delivered at 2 mL/kg by gastric gavage, resulting in final doses of 0.63 mg/kg and 2 mg/kg respectively. Vehicle control treatment was WFI delivered at 2 mL/kg by gastric gavage. This study was divided into three treatment phases (1-3) with each randomized cohort of animals receiving a different dose level during each of the treatment phases. Starting on day 30 after MCAO (Day 30, start of phase 1), the animals received gavage dosing of solutions (2 mL/kg) approximately 12 hours apart, for a total of five doses. The same schedule was repeated with different treatment on Day 44 and Day 58 for phase 2 and 3 of the study, respectively. Animals were not treated during the 10 days between phases (washout period).
Treatment groups: Dosing was started 4 weeks after MCAO surgery. During these 4 weeks, weekly behavioral assessments, as defined below, were performed. Two dose levels of 4-AP plus vehicle control were assessed, with treatment starting at 4 weeks after ischemic event. […] Following the final behavioral assessment, drug was withdrawn for 10 or 11 days, behavior was re-assessed, and then animals were re-challenged with a cross-over treatment (Phase 2 of Table 2B) as described in Tables 2A, 2B and 3, followed by the same behavioral testing and dosing regimen. […]

potassium channels = conditions: cited from earlier work
[2] = typical; also printed as 94 ng/mL^−1; cited from earlier work
[3] = human subjects; Donovan et al., Spinal Cord 2000; cited from earlier work

Which “Forelimb function, low dose compared to vehicle, first mixed model” value ([1]; 0.63 mg/kg b.i.d. p.o., level 0.05) does the source give for `Nc1ccncc1` [4-aminopyridine] here?
The value was “didn't show statistical significant improvement”.

What about the “Forelimb function, low dose compared to vehicle, second mixed model” value ([1]; 0.63 mg/kg b.i.d. p.o., p<0.0001) of the same compound?
Its value is “significant difference”.

And the “Forelimb function, high dose compared to low dose and vehicle” value ([1]; 2 mg/kg b.i.d. p.o., first mixed model, p=0.0334 vs low, p=0.001 vs vehicle)?
The value was “significantly improved the forelimb function”.

And the “Effect on forelimb function (FIG. 3)” value ([1]; low or high dose, 4 weeks post ischemic brain injury, dose-responsive, reversible)?
The value was “effective to improve forelimb function”.

What about the “potassium channel blocking activity” value (potassium channels; at high concentration (millimolar concentrations)) of the same compound?
Its value is “broad-spectrum blocker of potassium channels”.

And the “potassium channel blocking activity” value (potassium channels; at plasma concentrations obtained in clinical studies (<1 microM))?
Its value is “selective for certain types of these channels”.

And the “4-AP plasma concentrations obtained in clinical studies” value [2]?
Its value is less than 1 µM.

And the “delay in the peak concentration in cerebrospinal fluid compared to that in the blood” value [3]?
Its value is “approximately an hour”.

From patent US20160067232A1, “METHODS FOR TREATING A STROKE-RELATED SENSORIMOTOR IMPAIRMENT USING AMINOPYRIDINES” (Acorda Therapeutics, Inc., priority 2011, published 2016)
